Reference: patent publication US20260206813A1, “COMPOSITION FOR PROMOTING GHRELIN SECRETION” (Meiji Co., Ltd., priority 2022, published 2026)

Test system: mouse stomach-derived ghrelin-secreting cell line MGN3-1
Assay: Secretion of active (acylated) ghrelin from MGN3-1 cells, ELISA
Type: cell-based
Settings: for Acylated ghrelin (% control): 2 hours culture, control = 100; for ghrelin secretion promoting effect: conclusion from Table 3, absence of a gastric lipase
Protocol: The mouse stomach-derived ghrelin-secreting cell line MGN3-1 was seeded at 1×10^5 cells/well in a 96-well plate and cultured for 24 hours. After culturing, the cells were washed with 200 μL of Dulbecco's PBS, and 100 μL of each solution containing one test substance as indicated in Table 1 (buffer solution: 50 μM sodium octanoate/DMEM) was added (test group). The concentration of the test substance was applied at 10 μM or 30 μM. In the control group, 100 μL of a buffer solution without test substance was added. The number of trials performed, n, for each group was 4. After each group was cultured for 2 hours, a culture solution was recovered and centrifuged (800 g, 5 minutes, 4° C.) to obtain 80 μL of a supernatant. The supernatant was added with 8 μL of 1 N HCl and stored at −80° C. Next, active ghrelin (acylated ghrelin) in the sample was measured by the ELISA method (Ghrelin (Acylated) EIA Kit A05117, Bertin Pharma). Average values of measured values of the concentrations of ghrelin secreted when the test substances as indicated in Table 2 or Table 3 were added were calculated and indicated as values (%) assuming that the value of the control is 100 (Tables 2 and 3). The test was conducted again using the same testing method as described above, and the concentration of active ghrelin (acylated ghrelin) secreted in the sample was measured (FIGS. 2 and 3).
Statistical analysis was performed using a t-test or one-way ANOVA (one-way analysis of variance), and a multiple comparison test was conducted using the Tukey-Kramer test.

[1] = Table 2, test substance 10 μM, n=4
[2] = Table 2, test substance 30 μM, n=4
[3] = Table 3, test substance 30 μM, n=4

Compound	Acylated ghrelin (% control) [1]	Acylated ghrelin (% control) [2]	Acylated ghrelin (% control) [3]	ghrelin secretion promoting effect (30 μM)	also measured
CCCCCCCC/C=C\CCCCCCCC(=O)O [Test substance 2, Oleic acid]	146 % control	138 % control	–	–	–
CCCCCCCC/C=C\CCCCCCCC(=O)OC(CO)CO [Test substance 6, 2-Monoolein]	193 % control	206 % control	336 % control	–	–
CCCCCCCC/C=C\CCCCCCCC(=O)OCC(CO)OC(=O)CCCCCCCCCCCCCCC (centres unmarked) [Test substance 7, 1-Oleoyl-2-palmitoylglycerol]	–	–	237 % control	ghrelin secretion promoting effect	–
CCCCCCCC/C=C\CCCCCCCC(=O)OCC(COC(=O)CCCCCCC/C=C\CCCCCCCC)OC(=O)CCCCCCCCCCCCCCC [Test substance 9, 1,3-Dioleoyl-2-palmitoylglycerol]	–	–	116 % control	ghrelin secretion promoting effect	acylated ghrelin concentration as compared with the control (summary of Table 3, 30 μM): increased
CCCCCCCCCCCCCCCC(=O)OCC(O)CO (centres unmarked) [Test substance 3, 1-Monopalmitin]	105 % control	134 % control	–	–	difference of acylated ghrelin from the control (Table 2, 10 μM): no differences; acylated ghrelin concentration as compared with the control (Table 2, printed 30 M): increase
CCCCCCCC/C=C\CCCCCCCC(=O)OCC(O)CO (centres unmarked) [Test substance 5, 1-Monoolein]	177 % control	209 % control	388 % control	–	–
CCCCCCCC/C=C\CCCCCCCC(=O)OC(CO)COC(=O)CCCCCCCCCCCCCCC (centres unmarked) [Test substance 8, 1-Palmitoyl-2-oleoylglycerol]	–	–	206 % control	ghrelin secretion promoting effect	–
CCCCCCCCCCCCCCCC(=O)OC(CO)CO [Test substance 4, 2-Monopalmitin]	168 % control	218 % control	389 % control	–	increase of acylated ghrelin concentration as compared with the control (FIG. 1, repeat test, 30 μM, n=4, significant (p<0.05)): about 1.2 times
CCCCCCCC/C=C\CCCCCCCC(=O)OC(COC(=O)CCCCCCCCCCCCCCC)COC(=O)CCCCCCCCCCCCCCC [Test substance 10, 1,3-Dipalmitoyl-2-oleoylglycerol]	–	–	138 % control	ghrelin secretion promoting effect	acylated ghrelin concentration as compared with the control (summary of Table 3, 30 μM): increased
CCCCCCCCCCCCCCCC(=O)O [Test substance 1, Palmitic acid, reference compound]	82 % control	107 % control	–	–	difference of acylated ghrelin from the control (Table 2, concentration not stated (10 μM and 30 μM tested)): no differences
